Read-outs that look alike come from different tables or passages of the source. No end group written: not given here.
Columns and labels:
[1] = Synergy of Shiva-1 and lysozyme, percent viability; type: cell-based, Pseudomonas aeruginosa; settings: Pseudomonas aeruginosa
Protocol: The percent viability of Pseudomonas aeruginosa was determined relative to blank controls.

[2] = Synergy of Shiva-1 and lysozyme, percent viability; type: cell-based, Staphylococcus intermedius
Protocol: (§1) The percent viability of gram positive S. intermedius 19930, S. intermedius 20034, and S. aureus was determined relative to blank controls.

[3] = Synergy of Shiva-1 and lysozyme, percent viability; type: cell-based, Staphylococcus aureus; settings: S. aureus
Protocol: as §1

in vitro [4] = type: cell-based, human; settings: human, human red blood cells
[5] = Leukocyte (WBC) inhibition, toxicity LD50; type: cell-based, human; settings: male, human, human leukocytes (buffy coat cells, mostly PBMCs); Table 41, lower part
Protocol: In vitro viability of human leukocyte cells in the presence of different peptides at different concentrations was determined by an Alamar Blue protocol. Alamar Blue (Promega, Madison, Wis.) is an indicator dye, formulated to measure quantitatively the proliferation and cytotoxicity of the cells. The dye consists of an oxidation-reduction (redox) indicator that yields a calorimetric change and a fluorescent signal in response to cellular metabolic activity.
Assay protocol: Blood from a human was drawn and centrifuged at 1500 rpm for 15 minutes at room temperature. The buffy coat cells at the plasma-red blood cell interface were aspirated. Buffy coat cells (mainly lymphocyte cells) were then transferred into 15 ml centrifuge tubes containing 5 ml of RPMI-1640 medium+10% Fetal Bovine Serum (Gibco, Grand Island, N.Y.). Additional medium was added to the tubes to bring the volume up to 10 ml. The buffy coat suspension was then carefully layered on 5 ml of Histopaque (Sigma Chemical Co., St. Louis, Mo.) and centrifuged at 1500 rpm for 30 minutes at room temperature. The interface which is mostly PBMCs (peripheral mononuclear cells) was aspirated and transferred to a 15 ml conical centrifuge tube and, resuspended in 2 ml cold RPMI-1640 and brought up to 15 ml with cold RPMI-1640 medium. Cells were centrifuged at 1500 rpm for 10 minutes. The supernatant was then aspirated and discarded. The cell pellet was re-suspended in 1 ml of cold RPMI 1640 and brought up to 15 ml with RPMI medium. This step was repeated twice, except that in the last step, the cells were resuspended with 1 ml of cold RPMI-1640 medium and cell counts were performed with a hemocytometer according to the Sigma cell culture catalogue.
Pokewood mitogen was used as a control along with positive and negative controls. Negative control cells were killed with 70% methanol. Positive (+) control cells were incubated in RPMI medium (untreated). […] of AlamarBlue was added to the cells, and readings were taken after 24 hours, 48 hours, 72 hours, and 96 hours using a fluorimeter (excitation 544/transmission 590 nm).
In choosing a peptide for possible treatment of a given indication it is important to match the therapeutic activity and specificity of the peptide with its possible toxic properties.
The protocols for WBC and WI38 stimulation have been discussed above. The RBC protocol follows Table 24.

in vitro [6] = settings: human, WI38 normal lung fibroblast cells
MCF7 = experiment: Anti-cancer assay, MTT, LD50; type: cell-based; settings: for MCF7 LD50: Table 41, lower part; for LD50 MCF7: MCF7 breast adenocarcinoma line, MTT, 24 hours with peptide
Text: (§2) Numbers are LD50 values (μg/mL).

[7] = tested on: MCF7 line of breast cancer cells; settings: for MCF7 LD50: agent alone; for Active agent LD50 on MCF7 cells: Total conc.: peptide plus tamoxifen concentration at LD50; for Active agent LD50 on MCF7 cells: Peptide conc.: peptide with tamoxifen, peptide concentration at LD50; for Active agent LD50 on MCF7 cells: Tamox. conc.: tamoxifen concentration at LD50 (peptide with tamoxifen; tamoxifen alone in its own line)
[8] = Solubility of peptides in sheep serum; type: physicochemical; settings: sheep serum, […], 70% serum
Pseudomonas aeruginosa = experiment: Serum inactivation of peptides, serum MIC; type: cell-based; settings: for MIC 30 min treatment: sheep serum 37° C. 30 minutes; for MIC 2 hr treatment: sheep serum 37° C. 2 hours
Protocol: Subsequently, the serum MICs against Pseudomonas aeruginosa were conducted to determine extent of serum inactivation of the peptides.

P. aeruginosa H774 = type: cell-based, Pseudomonas aeruginosa; settings: P. aeruginosa H744; nalidixic acid + peptide at ¼ MIC; 0.5 or less = synergy
How it was run: (§3)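 Synergy against efflux-mutant strains: two-fold dilutions of nalidixic acid or chloramphenicol tested with peptide held at ¼ of its MIC.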

P. aeruginosa H374 = type: cell-based, Pseudomonas aeruginosa; settings: for MIC Cm-comb.: MIC of chloramphenicol with peptide at ¼ MIC; for MIC Nal-comb.: MIC of nalidixic acid with peptide at ¼ MIC; for FIC Index: 0.5 or less = synergy
How it was run: as §3

P. aeruginosa = type: cell-based, Pseudomonas aeruginosa; settings: P. aeruginosa H744; MIC of nalidixic acid with peptide at ¼ MIC
How it was run: as §3

BMKC = experiment: Anti-cancer assay, MTT, LD50; type: cell-based; settings: BMKC cloned melanoma line, 24 hours with peptide
Text: as §2

PC3 = experiment: Anti-cancer assay, MTT, LD50; type: cell-based; settings: 24 hours with peptide, prostate adenocarcinoma
Text: as §2

H1299 = experiment: Anti-cancer assay, MTT, LD50; type: cell-based; settings: 24 hours with peptide, lung large cell carcinoma
Text: as §2

HeLaS3 = experiment: Anti-cancer assay, MTT, LD50; type: cell-based; settings: 24 hours with peptide, cervical carcinoma
Text: as §2

SW480 = experiment: Anti-cancer assay, MTT, LD50; type: cell-based; settings: SW480 colon adenocarcinoma line, 24 hours with peptide
Text: as §2

WI38 = settings: MTT, 24 hours with peptide; normal fibroblast line
[9] = tested on: yeast (Saccharomyces cerevisiae); experiment: Antimicrobial assay I, yeast assay in RPMI 1640; type: cell-based; settings: RPMI 1640 media
[10] = tested on: Staphylococcus aureus ATCC 6538; experiment: Antimicrobial assay I, MIC by OD measurement; type: cell-based; settings: 37° C. for 24 hours, absorbance 620 nm
[11] = tested on: Pseudomonas aeruginosa ATCC 9027; experiment: Antimicrobial assay I, MIC by OD measurement; type: cell-based; settings: 37° C. for 24 hours, absorbance 620 nm
[12] = pH 7, Table 41, lower part, read-out: RBC LD50
[13] = WI38 LD50, Table 41, lower part
[14] = pH 7, hemolytic assay, concentration at 50% hemolysis, 1 hour at 37° C., read-out: LD50
[15] = chloramphenicol + peptide at ¼ MIC
[16] = nalidixic acid + peptide at ¼ MIC, FIC=0.25+MIC comb/MIC alone
[17] = LD50 WI38, WI38 normal lung fibroblast line, MTT, 24 hours with peptide

## MPRWRLFRRIDRVGKQIKQGILRAGPAIALVGDARAVG [Shiva-1]
[1]
  viability at 0.01 µM: 100%
  viability at 0.1 µM: 69.6%
  viability at 1 µM: 37.9%
  viability at 5 µM: 1.5%
  viability at 25 µM: 0%
[2]; S. intermedius 19930
  viability at 0.01 µM: 100%
  viability at 0.1 µM: 81.8%
  viability at 0.5 µM: 65%
  viability at 1 µM: 42.1%
  viability at 5 µM: 35.2%
  viability at 10 µM: 1.2%
  viability at 50 µM: 0%
[2]; S. intermedius 20034
  viability at 0.01 µM: 100%
  viability at 0.5 µM: 80%
  viability at 5 µM: 4.1%
  viability at 50 µM: 0%
[3]
  viability at 0.01 µM: 100%
  viability at 0.1 µM: 100%
  viability at 0.5 µM: 50.1%
  viability at 1 µM: 24.4%
  viability at 5 µM: 15.9%
  viability at 10 µM: 4.5%
  viability at 50 µM: 1.6%

## KLAKKLAKLAKLAKAL-OH [121 (160)]
In vitro [4]; [12]
  HC50 at 1 h: > 1000 µg/mL
[5]
  CC50: 900 µg/mL
In vitro [6]; [13]
  CC50 at 24 h: 700 µg/mL
MCF7
  MCF7 LD50: 240 µg/mL
[7]
  MCF7 LD50: 240 µg/mL
  Active agent LD50 on MCF7 cells: Total conc.: 14.7 µg/mL
  Active agent LD50 on MCF7 cells: Peptide conc.: 11 µg/mL
  Active agent LD50 on MCF7 cells: Tamox. conc.: 3.7 µg/mL

## FALALKALKKLLKKLKKLAKKAL-NH2 [P24]
In vitro [4]; [14]
  HC50 at 1 h: 10 µg/mL
[8]
  Solubility: Precipitated
Pseudomonas aeruginosa; first of two columns
  MIC 30 min treatment: 40 µg/mL
  MIC 2 hr treatment: 20 µg/mL
Pseudomonas aeruginosa; second of two columns
  MIC 30 min treatment: 20 µg/mL
  MIC 2 hr treatment: 20 µg/mL
P. aeruginosa H774
  FIC Index: 1.25
P. aeruginosa H374
  MIC Cm-comb.: 16 µg/mL
  MIC Nal-comb.: 5000 µg/mL
P. aeruginosa H374; [15]
  FIC Index: 1.25
P. aeruginosa H374; [16]
  FIC Index: 1.25
P. aeruginosa
  MIC Nal-comb.: 624 µg/mL
In vitro [6]; [17]
  CC50 at 24 h: 55 µg/mL
BMKC
  LD50 BMKC: 85 µg/mL
PC3
  PC3 LD50: 38 µg/mL
H1299
  H1299 LD50: 72 µg/mL
MCF7
  LD50 MCF7: 26 µg/mL
HeLaS3
  HeLaS3 LD50: 145 µg/mL
SW480
  LD50 SW480: 38 µg/mL
WI38
  WI38 LD50: 55 µg/mL

## WALAL-NH2 [145 (184)]
In vitro [4]; [12]
  HC50 at 1 h: 850 µg/mL
[5]
  CC50: 410 µg/mL
In vitro [6]; [13]
  CC50 at 24 h: 1000 µg/mL
MCF7
  MCF7 LD50: 240 µg/mL
[7]
  MCF7 LD50: 240 µg/mL
  Active agent LD50 on MCF7 cells: Total conc.: 14 µg/mL
  Active agent LD50 on MCF7 cells: Peptide conc.: 10 µg/mL
  Active agent LD50 on MCF7 cells: Tamox. conc.: 4 µg/mL

## KWKLFKKKTKLFKKFAKKLAKKL-OH [P81]
In vitro [4]; [14]
  HC50 at 1 h: 8 µg/mL
[8]
  Solubility: Precipitated
Pseudomonas aeruginosa; first of two columns
  MIC 30 min treatment: 20 µg/mL
  MIC 2 hr treatment: 20 µg/mL
Pseudomonas aeruginosa; second of two columns
  MIC 30 min treatment: 20 µg/mL
  MIC 2 hr treatment: 20 µg/mL
[9]
  yeast (MIC or MFC): > (> indicates greater than 200 μg/mL)
P. aeruginosa H774
  FIC Index: 1.25
P. aeruginosa H374
  MIC Cm-comb.: 16 µg/mL
  MIC Nal-comb.: 5000 µg/mL
P. aeruginosa H374; [15]
  FIC Index: 1.25
P. aeruginosa H374; [16]
  FIC Index: 1.25
P. aeruginosa
  MIC Nal-comb.: 624 µg/mL
In vitro [6]; [17]
  CC50 at 24 h: 8 µg/mL
BMKC
  LD50 BMKC: 12 µg/mL
PC3
  PC3 LD50: 170 µg/mL
H1299
  H1299 LD50: 22 µg/mL
MCF7
  LD50 MCF7: 63 µg/mL
HeLaS3
  HeLaS3 LD50: 19 µg/mL
SW480
  LD50 SW480: 13 µg/mL
WI38
  WI38 LD50: 8 µg/mL
[10]
  staph6538 (MIC): 10 µg/mL
[11]
  paerug9027 (MIC): > (> indicates greater than 200 μg/mL)

From patent US20050209157A1, “Short bioactive peptides and methods for their use” (priority 2001, published 2005)
